Source: article PMC10111423, “Antimalarial Imidazopyridines Incorporating an Intramolecular Hydrogen Bonding Motif: Medicinal Chemistry and Mechanistic Studies” (ACS Infectious Diseases, 2023)
≈ marks a conversion by molar mass, not a printed value. Where two headings read alike, the source gives them in different places.

Columns and labels:
Solubility = format: physicochemical; conditions: pH 6.5, aqueous buffer
Source text: Table 1 In Vitro Antiplasmodium Activity, Cytotoxicity, BHIA, and Solubility | column: Solubility pH 6.5, μM

[1] = In vitro cytotoxicity MTT assay; format: cell-based, Chinese hamster; conditions: Chinese hamster, Chinese hamster ovarian (CHO) cells; MTT assay
Experimental: (§1) In vitro cytotoxicity was performed on the Chinese Hamster Ovarian cell line by measuring cellular growth and survival calorimetrically through the MTT assay.[29],[30] The formation of tetrazolium salt was used as a measure of chemosensitivity and growth. (Details of this assay is described in the Supporting Information.) page 19: et al, 1993). The test samples were prepared to a 10 mmol/L stock solution in 100% DMSO. Samples were tested as a suspension if not completely dissolved. Further dilutions to the desired starting concentration were freshly prepared in growth media on each occasion of the experiment. The standard antimalarial drugs chloroquine (CQ) and artesunate (Arts) were used as the reference drug in all experiments. A full dose-response was performed for all compounds […] value). Test samples were tested at a starting concentration of 6mmol/L, which was then serially diluted 2-fold in growth medium to generate the tested concentration range. The same dilution technique was used for all samples. CQ and Arts were tested from a starting concentration of 1μg/mL. The highest concentration of solvent to which the parasites were exposed was <0.1% and has no measurable effect on the parasite viability (data not shown). The assay plate was incubated at 37 °C for 72h in a sealed gas chamber under 3% O2 and 4% CO2 with the balance being N2. After 72h, the wells in the assay plate were gently resuspended, and 15μL from each well was transferred to a duplicate plate containing 100μL of Malstat reagent and 25μL of nitroblue tetrazolium solution in each well. Plates were left to develop for 20 minutes in the dark and then absorbance of each well was quantified using a spectrophotometer at 620nm wavelength. The remaining population of parasites at each concentration of the test compound was determined by comparing the absorbance of each well to the absorbance of a well containing the drug-free control. Survival was plotted against concentration and the IC50 values were obtained using a non-linear dose-response curve fitting analysis via the Dotmatics software platform.2 In vitro Cytotoxicity Assay In vitro cytotoxicity was performed on the Chinese Hamster Ovarian cell line by measuring […] diphenyltetrazolium bromide (MTT) assay.3,4 The formation of tetrazolium salt was used as a measure of chemosensitivity and growth. 2 mg/mL stock solutions of the test compounds were prepared in DMSO and stored at -20 °C until required. The stock solution was subsequently diluted with the assay medium to make up an initial concentration of 100 μg/mL. The initial 100 μg/mL solution is serially diluted 10- S19 page 20: fold to attain six assay concentrations of 100-0.001 μg/mL. […] was used as the reference compound in this assay. The highest concentration of DMSO, which was used as the negative control, had no measurable effect on cell viability. After 44 hours of exposure of the cells to the test compounds, a solution of MTT was added. This was followed by an additional 4 hours of incubation at 37 °C. The assay plates were centrifuged, medium removed, and DMSO was added to the crystals. The amount of formazan was ascertained by measuring the absorbance at 540 nm. GraphPad Prism software was then used to generate IC50 values through a non-linear dose-response curve analysis. β-Hematin Inhibition Assay 20 mM stock solutions of controls and test compounds were made in DMSO. A solution […] was added to every well in columns 1-11 of a 96-well plate. 140 μL of water and 40 μL of 305.5 μM NP-40 were added to column 12 to mediate the formation of beta-hematin. 20 μL of test compounds (20 mM) were added to column 12 and 100 μL of this solution serially diluted to column 2, leaving column 1 blank (0 μM of test compound). 178.8 μL aliquot of hematin stock was suspended in 20 ml of a 1 M acetate buffer at pH 4.9. 100 μL of this hematin suspension was then added into each well, and the plates were incubated for ±5 hrs at 37°C. […]

[2] = tested on: Chinese hamster ovarian (CHO) cell line; test: In vitro cytotoxicity MTT assay; format: cell-based; conditions: CHO vs PfNF54
Experimental: as §1

[3] = tested on: chloroquine-sensitive (NF54) strain of P. falciparum; test: In vitro asexual blood-stage antiplasmodium pLDH assay, NF54 strain; format: cell-based; conditions: Plasmodium falciparum
Experimental: (§2) Compounds were screened against multi-drug-resistant (K1) and sensitive (NF54) strains of P. falciparum in vitro using a parasite lactate dehydrogenase assay (pLDH) (the method is described fully in the Supporting Information). […]
(§3) In vitro Asexual Blood Stage Antiplasmodium Assay
(§4) Parasites were cultured as per the method of Trager and Jensen,1 with modifications. IC50 values were determined using parasite lactate dehydrogenase as a marker for survival (Makler […]
(§5) et al, 1993). The test samples were prepared to a 10 mmol/L stock solution in 100% DMSO.
(§6) Samples were tested as a suspension if not completely dissolved. Further dilutions to the desired starting concentration were freshly prepared in growth media on each occasion of the experiment. The standard antimalarial drugs chloroquine (CQ) and artesunate (Arts) were used as the reference drug in all experiments. A full dose-response was performed for all compounds in a 96-well plate to determine the concentration inhibiting 50% of parasite growth (IC50– value). Test samples were tested at a starting concentration of 6mmol/L, which was then serially diluted 2-fold in growth medium to generate the tested concentration range. The same dilution technique was used for all samples. CQ and Arts were tested from a starting concentration of 1µg/mL. The highest concentration of solvent to which the parasites were exposed was <0.1% and has no measurable effect on the parasite viability (data not shown).
(§7) The assay plate was incubated at 37 °C for 72h in a sealed gas chamber under 3% O2 and 4% CO2 with the balance being N2. After 72h, the wells in the assay plate were gently resuspended, and 15µL from each well was transferred to a duplicate plate containing 100µL of Malstat reagent and 25µL of nitroblue tetrazolium solution in each well. Plates were left to develop for 20 minutes in the dark and then absorbance of each well was quantified using a spectrophotometer at 620nm wavelength.
(§8) The remaining population of parasites at each concentration of the test compound was determined by comparing the absorbance of each well to the absorbance of a well containing […]
(§9) the drug-free control. […]
(§10) The initial 100 µg/mL solution is serially diluted 10-

β-hematin = test: β-Hematin inhibition assay (BHIA), cell-free NP-40 mediated; format: biochemical; conditions: mean of n = 3
Experimental: page 20: fold to attain six assay concentrations of 100-0.001 μg/mL. […] was used as the reference compound in this assay. The highest concentration of DMSO, which was used as the negative control, had no measurable effect on cell viability. After 44 hours of exposure of the cells to the test compounds, a solution of MTT was added. This was followed by an additional 4 hours of incubation at 37 °C. The assay plates were centrifuged, medium removed, and DMSO was added to the crystals. The amount of formazan was ascertained by measuring the absorbance at 540 nm. GraphPad Prism software was then used to generate IC50 values through a non-linear dose-response curve analysis. β-Hematin Inhibition Assay 20 mM stock solutions of controls and test compounds were made in DMSO. A solution […] was added to every well in columns 1-11 of a 96-well plate. 140 μL of water and 40 μL of 305.5 μM NP-40 were added to column 12 to mediate the formation of beta-hematin. 20 μL of test compounds (20 mM) were added to column 12 and 100 μL of this solution serially diluted to column 2, leaving column 1 blank (0 μM of test compound). 178.8 μL aliquot of hematin stock was suspended in 20 ml of a 1 M acetate buffer at pH 4.9. 100 μL of this hematin […] pH 7.4 and 50% pyridine) and 60 μL of acetone were added to all wells. The absorbances of plate wells were recorded at 405 nm on a SpectraMax plate reader. Sigmoidal dose-response curves with variable slopes were fitted to the absorbance data using GraphPad Prism to obtain the IC50 values for each compound. In vitro Microsomal Stability Assay The in vitro microsomal stability assay was performed in duplicate in a 96-well micro titre […] individually in human (pool of 50, mixed gender), rat (pool of 711, male Sprague Dawley) and mouse (pool of 1634, male CD1) liver microsomes (final protein concentration of 0.4 mg/mL; Xenotech, Kansas, USA), suspended in 0.1M phosphate buffer (pH 7.4). Incubations were S20

[4] = tested on: multidrug-resistant (K1) strain of P. falciparum; test: In vitro asexual blood-stage antiplasmodium pLDH assay, K1 strain; format: cell-based; conditions: Plasmodium falciparum, 72 h, n ≥ 3, read-out: In vitro antiplasmodium activity IC50 PfK1 strain
Experimental: as §2, §3, §4, §5, §6, §7, §8, §9, §10

[5] = NF54, pLDH, 72 h, n ≥ 3, read-out: In vitro antiplasmodium activity IC50 PfNF54 strain

SMILES | solubility (Solubility) | IC50 at 44 h [1] | SI (selectivity index) = IC50 CHO/IC50 PfNF54 [2] | IC50 [3, 5] | IC50 (β-hematin) | IC50 [4] | IC50 ([3]; NF54, controls, strain not stated in footnote, read-out: IC50 of controls in pLDH antiplasmodium assay) | IC50 ([3]; NF54, read-out: IC50 of controls in pLDH antiplasmodium assay)
CCN(CCNc1cc2[nH]c(CC3CC3)nc2cn1)Cc1ccc(Cl)cc1O [Compound 8, 5-Chloro-2-(((2-((2-(cyclopropylmethyl)-1H-imidazo[4,5-c]pyridin-6-yl)amino)ethyl)(ethyl)amino)methyl)phenol] | 185 µM (≈ 74 µg/mL) | > 50 µM | >89.29 | 0.56 µM | 444 µM | 6 µM | – | –
CCN(CCNc1cc2[nH]c(C3CC(F)(F)C3)nc2cn1)Cc1ccc(Cl)cc1O [Compound 10, 5-Chloro-2-(((2-((2-(3,3-difluorocyclobutyl)-1H-imidazo[4,5-c]pyridin-6-yl)amino)ethyl)(ethyl)amino)methyl)phenol] | 175 µM (≈ 76.3 µg/mL) | > 50 µM | >58.14 | 0.86 µM | 76 µM | 5.27 µM | – | –
C[C@H]1[C@H](OC(=O)CCC(=O)O)O[C@@H]2O[C@@]3(C)CC[C@H]4[C@H](C)CC[C@@H]1[C@@]24OO3 [artesunate, reference compound] | – | – | – | – | – | – | 0.007 µM | –
CCN(CCNc1cc2[nH]c(C3(C(F)(F)F)CC3)nc2cn1)Cc1ccc(Cl)cc1O [Compound 7, 5-Chloro-2-((ethyl(2-((2-(1-(trifluoromethyl)cyclopropyl)-1H-imidazo[4,5-c]pyridin-6-yl)amino)ethyl)amino)methyl)phenol] | 175 µM (≈ 79.4 µg/mL) | > 50 µM | >29.94 | 1.67 µM | 275 µM | 6 µM | – | –
CCN(CCNc1cc2[nH]c(C)nc2cn1)Cc1ccc(Cl)cc1O [Compound 4, 5-Chloro-2-((ethyl(2-((2-methyl-1H-imidazo[4,5-c]pyridin-6-yl)amino)ethyl)amino)methyl)phenol] | 135 µM (≈ 48.6 µg/mL) | > 50 µM | >19.76 | 2.53 µM | 257 µM | 4.11 µM | – | –
CCN(CCNc1cc2[nH]c(C3CCC3)nc2cn1)Cc1ccc(Cl)cc1O [Compound 9, 5-Chloro-2-(((2-((2-cyclobutyl-1H-imidazo[4,5-c]pyridin-6-yl)amino)ethyl)(ethyl)amino)methyl)phenol] | 170 µM (≈ 68 µg/mL) | > 50 µM | >74.63 | 0.67 µM | 128 µM | 6 µM | – | –
CCN(CCNc1cc2[nH]c(C3CCC(F)(F)CC3)nc2cn1)Cc1ccc(Cl)cc1O [Compound 12, 5-Chloro-2-(((2-((2-(4,4-difluorocyclohexyl)-1H-imidazo[4,5-c]pyridin-6-yl)amino)ethyl)(ethyl)amino)methyl)phenol] | < 5 µM | > 50 µM | – | 0.93 µM | 31 µM | 3.68 µM | – | –
CCN(CCNc1cc2[nH]c(C3CCCCC3)nc2cn1)Cc1ccc(Cl)cc1O [Compound 11, 5-Chloro-2-(((2-((2-cyclohexyl-1H-imidazo[4,5-c]pyridin-6-yl)amino)ethyl)(ethyl)amino)methyl)phenol] | 140 µM (≈ 59.9 µg/mL) | > 50 µM | >72.46 | 0.69 µM | 80 µM | 2.12 µM | – | –
CCN(CCNc1cc2[nH]c([C@H]3CC[C@@H](C(F)(F)F)CC3)nc2cn1)Cc1ccc(Cl)cc1O [Compound 17, 5-Chloro-2-((ethyl(2-((2-((1r,4r)-4-(trifluoromethyl)cyclohexyl)-1H-imidazo[4,5-c]pyridin-6-yl)Amino)ethyl)amino)methyl)phenol] | 135 µM (≈ 67 µg/mL) | 49.1 µM | 51.68 | 0.95 µM | 239 µM | 1.71 µM | – | –
CCN(CC)CCCC(C)Nc1ccnc2cc(Cl)ccc12 (centres unmarked) [chloroquine, reference compound] | – | – | – | – | – | – | – | 0.012 µM
O=[N+]([O-])c1ccc(NCCN(CCNc2cc3[nH]c(-c4cccc(C(F)(F)F)c4)nc3cn2)Cc2ccc(Cl)cc2O)c2nonc12 [Compound 14-NBD, 5-Chloro-2-(((2-((7-nitrobenzo[c][1,2,5]oxadiazol-4-yl)amino)ethyl)(2-((2-(3-(trifluoromethyl)phenyl)-1H-imidazo[4,5-c]pyridin-6-yl)amino)ethyl)amino)methyl)phenol] | – | – | – | 0.049 µM | – | – | – | –
